Laboratory results from paper doi:10.1101/2023.03.20.532734v1 (bioRxiv, 2023).
Residues, ends and D or L forms follow the SMILES beside them.

Legend:
[1] = ref [29], [30]; cited from earlier work
WT GLP-2R = target: T1, WT GLP-2R (Homo sapiens, UniProt O95838); test: GLP-2R signaling assay, cAMP measurements; type: cell-based
T1 sequence (O95838 1-553): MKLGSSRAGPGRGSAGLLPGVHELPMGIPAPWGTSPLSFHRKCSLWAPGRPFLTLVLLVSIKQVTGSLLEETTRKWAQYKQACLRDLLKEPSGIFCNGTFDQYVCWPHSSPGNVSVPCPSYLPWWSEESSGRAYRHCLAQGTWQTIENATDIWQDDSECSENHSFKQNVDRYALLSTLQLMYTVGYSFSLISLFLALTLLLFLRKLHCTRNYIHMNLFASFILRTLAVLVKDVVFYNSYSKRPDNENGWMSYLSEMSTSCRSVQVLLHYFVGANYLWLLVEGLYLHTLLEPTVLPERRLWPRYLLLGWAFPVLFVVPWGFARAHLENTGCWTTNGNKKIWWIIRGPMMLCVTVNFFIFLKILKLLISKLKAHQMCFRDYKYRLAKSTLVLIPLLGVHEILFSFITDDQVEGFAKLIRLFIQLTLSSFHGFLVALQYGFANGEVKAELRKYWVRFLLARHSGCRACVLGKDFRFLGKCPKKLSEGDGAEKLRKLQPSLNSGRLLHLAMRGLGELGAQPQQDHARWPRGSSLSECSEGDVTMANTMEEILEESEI

Row | EC50 (WT GLP-2R) [nM] | SMILES | half-life, whole body metabolism in vivo [1] [min]
1 |  | CC[C@H](C)[C@H](NC(=O)[C@H](Cc1ccccc1)NC(=O)[C@H](CCC(=O)O)NC(=O)[C@H](CCCCN)NC(=O)[C@H](C)NC(=O)[C@H](C)NC(=O)[C@H](CCC(N)=O)NC(=O)CNC(=O)[C@H](CCC(=O)O)NC(=O)[C@H](CC(C)C)NC(=O)[C@H](Cc1ccc(O)cc1)NC(=O)[C@H](CO)NC(=O)[C@H](CO)NC(=O)[C@@H](NC(=O)[C@H](CC(=O)O)NC(=O)[C@H](CO)NC(=O)[C@@H](NC(=O)[C@H](Cc1ccccc1)NC(=O)[C@@H](NC(=O)CNC(=O)[C@H](CCC(=O)O)NC(=O)[C@H](C)NC(=O)[C@@H](N)Cc1c[nH]cn1)[C@@H](C)O)[C@@H](C)O)C(C)C)C(=O)N[C@@H](C)C(=O)N[C@@H](Cc1c[nH]c2ccccc12)C(=O)N[C@@H](CC(C)C)C(=O)N[C@H](C(=O)N[C@@H](CCCCN)C(=O)NCC(=O)N[C@@H](CCCN=C(N)N)C(=O)NCC(=O)O)C(C)C [GLP-1, glucagon-like peptide 1] | 1 to 2
2 | 0.265 | CC[C@H](C)[C@H](NC(=O)[C@H](Cc1ccccc1)NC(=O)[C@H](CC(=O)O)NC(=O)[C@H](CCCNC(=N)N)NC(=O)[C@H](C)NC(=O)[C@H](C)NC(=O)[C@H](CC(C)C)NC(=O)[C@H](CC(N)=O)NC(=O)[C@H](CC(=O)O)NC(=O)[C@H](CC(C)C)NC(=O)[C@@H](NC(=O)[C@@H](NC(=O)[C@H](CC(N)=O)NC(=O)[C@H](CCSC)NC(=O)[C@H](CCC(=O)O)NC(=O)[C@H](CC(=O)O)NC(=O)[C@H](CO)NC(=O)[C@H](Cc1ccccc1)NC(=O)[C@H](CO)NC(=O)CNC(=O)[C@H](CC(=O)O)NC(=O)[C@H](CO)NC(=O)[C@@H](N)Cc1c[nH]cn1)[C@@H](C)O)[C@@H](C)CC)C(=O)N[C@@H](CC(N)=O)C(=O)N[C@@H](Cc1c[nH]c2ccccc12)C(=O)N[C@@H](CC(C)C)C(=O)N[C@H](C(=O)N[C@@H](CCC(N)=O)C(=O)N[C@H](C(=O)N[C@@H](CCCCN)C(=O)N[C@H](C(=O)N[C@H](C(=O)N[C@@H](CC(=O)O)C(=O)O)[C@@H](C)O)[C@@H](C)CC)[C@@H](C)O)[C@@H](C)CC [GLP-2 Ser2] (H-HSDGSFSDEMNTILDNLAARDFINWLIQTKITD-OH) | 
3 |  | CC[C@H](C)[C@H](NC(=O)[C@H](Cc1ccccc1)NC(=O)[C@H](CC(=O)O)NC(=O)[C@H](CCCN=C(N)N)NC(=O)[C@H](C)NC(=O)[C@H](C)NC(=O)[C@H](CC(C)C)NC(=O)[C@H](CC(N)=O)NC(=O)[C@H](CC(=O)O)NC(=O)[C@H](CC(C)C)NC(=O)[C@@H](NC(=O)[C@@H](NC(=O)[C@H](CC(N)=O)NC(=O)[C@H](CCSC)NC(=O)[C@H](CCC(=O)O)NC(=O)[C@H](CC(=O)O)NC(=O)[C@H](CO)NC(=O)[C@H](Cc1ccccc1)NC(=O)[C@H](CO)NC(=O)CNC(=O)[C@H](CC(=O)O)NC(=O)[C@H](C)NC(=O)[C@@H](N)Cc1cnc[nH]1)[C@@H](C)O)[C@@H](C)CC)C(=O)N[C@@H](CC(N)=O)C(=O)N[C@@H](Cc1c[nH]c2ccccc12)C(=O)N[C@@H](CC(C)C)C(=O)N[C@H](C(=O)N[C@@H](CCC(N)=O)C(=O)N[C@H](C(=O)N[C@@H](CCCCN)C(=O)N[C@H](C(=O)N[C@H](C(=O)N[C@@H](CC(=O)O)C(=O)O)[C@@H](C)O)[C@@H](C)CC)[C@@H](C)O)[C@@H](C)CC [GLP-2, glucagon-like peptide 2] | 7
